The record followed here is patent publication US9045445B2, “Glycine transporter-1 inhibitors, methods of making them, and uses thereof” (Albany Molecular Research, Inc., priority 2010, dated 2015).

Molecules are shown by their SMILES. Counter-ions that a name gives are not always drawn.

The target in this assay is T1, glycine transporter-1 (GlyT-1) (Homo sapiens, UniProt P48067).
T1 construct: JAR cells (ATCC#HTB-144), which endogenously express GlyT-1; host or cells: JAR human choriocarcinoma cells
T1 sequence (P48067 1-706): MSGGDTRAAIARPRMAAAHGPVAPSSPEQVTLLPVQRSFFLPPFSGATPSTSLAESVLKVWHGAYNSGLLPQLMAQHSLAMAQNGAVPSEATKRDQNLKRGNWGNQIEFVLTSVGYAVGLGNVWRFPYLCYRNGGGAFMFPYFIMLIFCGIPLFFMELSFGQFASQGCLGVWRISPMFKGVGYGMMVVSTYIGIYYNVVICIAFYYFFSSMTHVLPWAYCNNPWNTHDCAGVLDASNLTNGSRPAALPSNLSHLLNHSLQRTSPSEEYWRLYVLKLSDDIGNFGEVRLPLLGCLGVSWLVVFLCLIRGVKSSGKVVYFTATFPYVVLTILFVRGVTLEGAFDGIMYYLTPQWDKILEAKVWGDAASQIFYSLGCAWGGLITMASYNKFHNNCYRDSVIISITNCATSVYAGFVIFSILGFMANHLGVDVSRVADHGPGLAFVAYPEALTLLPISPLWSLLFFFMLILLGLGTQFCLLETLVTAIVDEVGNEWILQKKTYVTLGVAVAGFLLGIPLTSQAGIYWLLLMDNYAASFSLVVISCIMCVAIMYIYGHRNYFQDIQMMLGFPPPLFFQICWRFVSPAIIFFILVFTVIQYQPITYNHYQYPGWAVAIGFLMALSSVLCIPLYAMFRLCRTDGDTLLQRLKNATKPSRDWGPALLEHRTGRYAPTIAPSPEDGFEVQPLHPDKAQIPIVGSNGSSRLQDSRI
The experiment in a line: [14C]glycine uptake assay in JAR cells endogenously expressing GlyT-1 (scintillation proximity). Type of assay: cell-based. Conditions: JAR cells, [14C]glycine 5 μM, 3 hour incubation; read-out: GlyT-1 IC50. The method in brief:
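Human choriocarcinoma JAR cells (endogenous GlyT-1) attached overnight, then pre-incubated 10 min at room temperature with compound in pH 7.4 Hepes uptake buffer containing 5 mM alanine and 0.75% DMSO. Uptake of 5 μM [14C]glycine over 3 h at 37 °C read by scintillation proximity; IC50 from four-parameter fit of nine-point curves.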
With `Cn1cnc(S(=O)(=O)N2CCN(C3(CNC(=O)c4ccc(C(F)(F)F)cc4F)CCC(F)(F)CC3)CC2)c1` [compound 170, N-((4,4-Difluoro-1-(4-(1-methyl-1H-imidazol-4-ylsulfonyl)piperazin-1-yl)cyclohexyl)methyl)-2-fluoro-4-(trifluoromethyl)benzamide Hydrochloride], the IC50 worked out at 14 nM.
For `CCS(=O)(=O)N1CCN(C2(CNC(=O)c3c(Cl)cc(Cl)cc3Cl)CCC(F)(F)CC2)CC1` [compound 209, 2,4,6-Trichloro-N-((1-(4-(ethylsulfonyl)piperazin-1-yl)-4,4-difluorocyclohexyl)methyl) benzamide Hydrochloride], the IC50 came to 83 nM.
The result for `Cn1cc(S(=O)(=O)N2CCN(C3(CNC(=O)c4ccc(F)cc4F)CCC(F)(F)CC3)CC2)nn1` [compound 229, N-((4,4-Difluoro-1-(4-(1-methyl-1H-1,2,3-triazol-4-ylsulfonyl)piperazin-1-yl)cyclohexyl)methyl)-2,4-difluorobenzamide Hydrochloride] reads 10 nM; that for `Cn1cnc(S(=O)(=O)N2CCN(C3(CNC(=O)c4c(F)cccc4OC(F)F)CCC(F)(F)CC3)CC2)c1` [compound 188, N-((4,4-Difluoro-1-(4-(1-methyl-1H-imidazol-4-ylsulfonyl)piperazin-1-yl)cyclohexyl)methyl)-2-(difluoromethoxy)-6-fluorobenzamide Hydrochloride], 1 nM.
For the molecule `CCS(=O)(=O)N1CCN(C2(CNC(=O)c3ccc(C(C)(F)F)cc3Cl)CCC(F)(F)CC2)CC1` [compound 205, 2-Chloro-4-(1,1-difluoroethyl)-N-((1-(4-(ethylsulfonyl)piperazin-1-yl)-4,4-difluorocyclohexyl)methyl) benzamide Hydrochloride], the IC50 amounted to 187 nM.
With `CCCS(=O)(=O)N1CCN(C2(CNC(=O)c3c(C)cccc3OC)CCCCC2)CC1` [compound 3, 2-Methoxy-6-methyl-N-((1-(4-(propylsulfonyl)piperazin-1-yl)cyclohexyl)methyl) benzamide Hydrochloride], the IC50 came to 541 nM.
With `Cc1cc(F)c(C(=O)NCC2(N3CCN(S(=O)(=O)c4cn(C)nn4)CC3)CCC(F)(F)CC2)cc1F` [compound 239, N-((4,4-Difluoro-1-(4-(1-methyl-1H-1,2,3-triazol-4-ylsulfonyl)piperazin-1-yl)cyclohexyl)methyl)-2,5-difluoro-4-methylbenz-amide Hydrochloride], the IC50 was 20 nM.
Consider `Cn1cnc(S(=O)(=O)N2CCN(C3(CNC(=O)c4c(F)cccc4OC(F)(F)F)CCC(F)(F)CC3)CC2)c1` [compound 186, N-((4,4-Difluoro-1-(4-(1-methyl-1H-imidazol-4-ylsulfonyl)piperazin-1-yl)cyclohexyl)methyl)-2-fluoro-6-(trifluoromethoxy) benzamide Hydrochloride], for which the IC50 stood at 1 nM.
Take `CCCS(=O)(=O)N1CCN(C2(CNC(=O)c3ccc(OC)cc3)CCCCCC2)CC1` [compound 67, 4-Methoxy-N-((1-(4-(propylsulfonyl)piperazin-1-yl)cycloheptyl)methyl) benzamide Hydrochloride]: the IC50 came to 863 nM.
In the case of `CC(NC(=O)c1ccc(C(F)(F)F)cc1Cl)C1(N2CCN(S(=O)(=O)c3cn(C)nn3)CC2)CCCC1` (stereo not drawn) [compound 282, 2-Chloro-N-(1-(1-(4-(1-methyl-1H-1,2,3-triazol-4-ylsulfonyl)piperazin-1-yl)cyclopentyl)ethyl)-4-(trifluoromethyl)benzamide Hydrochloride], the IC50 is 29 nM.
For the molecule `CCCS(=O)(=O)N1CCN(C2(CNC(=O)c3c(F)cccc3F)CCCOCC2)CC1` (stereo not drawn) [compound 268, 2,6-Difluoro-N-((4-(4-(propylsulfonyl)piperazin-1-yl)oxepan-4-yl)methyl)benzamide Hydrochloride], the IC50 amounted to 238 nM.
As to `O=C(NCC1(N2CCN(S(=O)(=O)c3cccnc3)CC2)CCC(F)(F)CC1)c1c(F)cccc1F` [compound 269, N-((4,4-Difluoro-1-(4-(pyridin-3-ylsulfonyl)piperazin-1-yl)cyclohexyl)methyl)-2,6-difluorobenzamide Hydrochloride], the IC50 was 817 nM.
